Assay results taken from patent US9670204B2, “Compounds and pharmaceutical compositions thereof for the treatment of inflammatory disorders” (Galapagos NV, priority 2013, dated 2017).

Assays:
LPA 18:2 in rat plasma = experiment: Rat whole blood (plasma) LPA assay; assay type: biochemical; details: 2 h at 37 C, LPA 18:2 by LC-MS/MS
Experimental: Whole blood is collected from rats or mouse by exsanguinations on sodium heparin tube, then after centrifugation at 3000 rpm for 15 min at 4° C., plasma is stored at −80° C. Compounds are diluted in DMSO in concentration dependent manner then 0.5 μL are dispensed into 96-well plate placed in ice. Plasma is defrosted on ice then 49.5 μL of plasma are added into the well containing 0.5 μL of compound (1% DMSO final). Plates are covered with a lid in polypropylene and incubated at +37° C., 5% CO2, for 2 h under gentle shaking (except controls which are stored at −20° C.).
At the end of the incubation, controls are defrosted in ice and transferred in the incubated plates for LC-MS/MS analysis with a non GLP-validated method. For the analysis, plasma proteins from a 10 μL incubated plates are precipitated with an excess of methanol containing the internal standard, LPA 17:0. After centrifugation, the corresponding supernatant is injected on a C18 column. Analytes are eluted out of the column under isocratic conditions. An API5500 QTRAP mass spectrometer (ABSciex™) is used for the detection of LPA 18:2. No calibration curve is prepared for LPA 18:2, however relative quantities are evaluated based on the peak area.

hENPP2 [1] = target: T1, hENPP2 (UniProtKB/SwissProt Q13822) (Homo sapiens (Human), UniProt Q13822); experiment: hENPP2 biochemical assay, LPC as substrate; details: LPC (palmitoyl 16:0) as substrate
Outline: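 Human ENPP2 in 50 mM Tris-HCl pH 8.5, 500 mM NaCl, 5 mM KCl, 10 mM CaCl2, 0.1% fatty-acid-free BSA, reacted 30 min at 37 °C with LPC 16:0 (150 µM solution added 1:1). Released choline measured via choline oxidase/peroxidase/TOOS/4-aminoantipyrine quinoneimine dye at 555 nm; IC50 reported.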

hENPP2 [2] = target: T1, hENPP2; experiment: fluorescent hENPP2 biochemical assay, FS-3 as substrate; details: read-out: FS3-IC50
Outline: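 hENPP2 in 50 mM Tris-HCl pH 8.0, 250 mM NaCl, 5 mM KCl, 1 mM MgCl2, 1 mM CaCl2, 0.1% fatty-acid-free BSA, preincubated with compound 30 min at room temperature. The 0.75 μM FS-3 solution was added and the mixture incubated 30 min at 30° C. Fluorescence (ex 485/em 520 nm) gives IC50.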

IC50 (LPA 18:2 in rat plasma) [nM] | IC50 (hENPP2 [1]) [nM] | IC50 (hENPP2 [2]) [nM] | Compound
0.01 to 100 | – | – | CCc1nc2cc(F)c(N3CCN(CC(=O)N4CC(O)C4)CC3)cn2c1N(C)c1nc(-c2ccc(F)cc2)c(C#N)s1 [Compound 18, 2-[(2-Ethyl-7-fluoro-6-{4-[2-(3-hydroxy-azetidin-1-yl)-2-oxo-ethyl]-piperazin-1-yl}-imidazo[1,2-a]pyridin-3-yl)-methyl-amino]-4-(4-fluoro-phenyl)-thiazole-5-carbonitrile]
> 1000 | 100 to 500 | – | CCc1nc2ccc(N3CCN(CC(=O)N4CC[C@@H](O)C4)CC3)cn2c1N(C)c1nc(-c2ccc(F)cc2)cs1 [Compound 26, (R)-2-(4-(2-ethyl-3-((4-(4-fluorophenyl)thiazol-2-yl)(methyl)amino)imidazo[1,2-a]pyridin-6-yl)piperazin-1-yl)-1-(3-hydroxypyrrolidin-1-yl)ethanone]
0.01 to 100 | 0.01 to 100 | – | CCc1nc2ccc(C3CCN(CC(=O)N4CC[C@@H](O)C4)CC3)cn2c1N(C)c1nc(-c2ccc(F)cc2)c(C#N)s1 [Compound 142, (R)-2-((2-ethyl-6-(1-(2-(3-hydroxypyrrolidin-1-yl)-2-oxoethyl)piperidin-4-yl)imidazo[1,2-a]pyridin-3-yl)(methyl)amino)-4-(4-fluorophenyl)thiazole-5-carbonitrile]
500 to 1000 | – | – | CCc1nc2c(F)cc(N3CCN(CC(=O)N4CC[C@@H](O)C4)CC3)cn2c1N(C)c1nc(-c2ccc(F)cc2)cs1 [Compound 16, (R)-2-(4-(2-ethyl-8-fluoro-3-((4-(4-fluorophenyl)thiazol-2-yl)(methyl)amino)imidazo[1,2-a]pyridin-6-yl)piperazin-1-yl)-1-(3-hydroxypyrrolidin-1-yl)ethanone]
100 to 500 | – | – | CCc1nc2c(C)cc(C3CCN(CC(=O)N4CC(O)C4)CC3)cn2c1N(C)c1nc(-c2ccc(F)cc2)c(C#N)s1 [Compound 10, 2-((2-ethyl-6-(1-(2-(3-hydroxyazetidin-1-yl)-2-oxoethyl)piperidin-4-yl)-8-methylimidazo[1,2-a]pyridin-3-yl)(methyl)amino)-4-(4-fluorophenyl)thiazole-5-carbonitrile]
> 1000 | – | – | CCc1nc2cc(F)c(N3CCN(CC(=O)N4CC(O)C4)CC3)cn2c1N(C)c1nc(-c2ccc(F)cc2)cs1 [Compound 19, 2-[4-(2-Ethyl-7-fluoro-3-{[4-(4-fluoro-phenyl)-thiazol-2-yl]-methyl-amino}-imidazo[1,2-a]pyridin-6-yl)-piperazin-1-yl]-1-(3-hydroxy-azetidin-1-yl)-ethanone]
500 to 1000 | – | – | CCc1nc2c(F)cc(N3CCN(CC(=O)N4CC[C@H](O)C4)CC3)cn2c1N(C)c1nc(-c2ccc(F)cc2)cs1 [Compound 15, (S)-2-(4-(2-ethyl-8-fluoro-3-((4-(4-fluorophenyl)thiazol-2-yl)(methyl)amino)imidazo[1,2-a]pyridin-6-yl)piperazin-1-yl)-1-(3-hydroxypyrrolidin-1-yl)ethanone]
100 to 500 | – | – | CCc1nc2c(C)cc(N3CCN(CC(=O)N4CC(O)C4)C(C)(C)C3)cn2c1N(C)c1nc(-c2ccc(F)cc2)c(C#N)s1 [Compound 6, 2-((2-ethyl-6-(4-(2-(3-hydroxyazetidin-1-yl)-2-oxoethyl)-3,3-dimethylpiperazin-1-yl)-8-methylimidazo[1,2-a]pyridin-3-yl)(methyl)amino)-4-(4-fluorophenyl)thiazole-5-carbonitrile]
100 to 500 | – | – | CCc1nc2c(C)cc(N3CCN(CC(=O)N4CC(C)(O)C4)CC3)cn2c1N(C)c1nc(-c2ccc(F)cc2)c(C#N)s1 [Compound 3, 2-((2-ethyl-6-(4-(2-(3-hydroxy-3-methylazetidin-1-yl)-2-oxoethyl)piperazin-1-yl)-8-methylimidazo[1,2-a]pyridin-3-yl)(methyl)amino)-4-(4-fluorophenyl)thiazole-5-carbonitrile]
0.01 to 100 | – | – | CCc1nc2c(F)cc(N3CCN(CC(=O)N4CC(O)C4)CC3)cn2c1N(C)c1nc(-c2ccc(F)cc2)cs1 [Compound 14, 2-(4-(2-ethyl-8-fluoro-3-((4-(4-fluorophenyl)thiazol-2-yl)(methyl)amino)imidazo[1,2-a]pyridin-6-yl)piperazin-1-yl)-1-(3-hydroxyazetidin-1-yl)ethanone]
– | > 1000 | 0.01 to 100 | CCc1nc2ccc(C3=CCN(S(=O)(=O)CCCOC(C)=O)CC3)cn2c1N(C)c1nc(-c2ccc(F)cc2)cs1 [Compound 74, Acetic acid 3-[4-(2-ethyl-3-{[4-(4-fluoro-phenyl)-thiazol-2-yl]-methyl-amino}-imidazo[1,2-a]pyridin-6-yl)-3,6-dihydro-2H-pyridine-1-sulfonyl]-propyl ester]
– | > 1000 | 0.01 to 100 | CCc1nc2ccc(N3CCCCS3(=O)=O)cn2c1N(C)c1nc(-c2ccc(Cl)cc2)cs1 [Compound 207, 2-(2-ethyl-4-((4-(4-chlorophenyl)thiazol-2-yl)(methyl)amino)imidazo[1,2-a]pyridin-6-yl)-1-[1,2]thiazinane-1,1-dioxide]
– | 500 to 1000 | 0.01 to 100 | CCc1nc2ccc(N3CCN(C(=O)CO)CC3)cn2c1N(C)c1nc(-c2ccc(F)cc2)cs1 [Compound 50, 1-(4-(2-ethyl-3-((4-(4-fluorophenyl)thiazol-2-yl)(methyl)amino)imidazo[1,2-a]pyridin-6-yl)piperazin-1-yl)-2-hydroxyethanone]
– | 100 to 500 | 0.01 to 100 | CCc1nc2ccc(N3CCN(CC(=O)N4CCC(NC(C)=O)C4)CC3)cn2c1N(C)c1nc(-c2ccc(F)cc2)cs1 (stereo not drawn) [Compound 27, N-(1-(2-(4-(2-ethyl-3-((4-(4-fluorophenyl)thiazol-2-yl)(methyl)amino)imidazo[1,2-a]pyridin-6-yl)piperazin-1-yl)acetoyl)pyrrolidin-3-yl)acetamide]
– | > 1000 | 0.01 to 100 | CCc1nc2ccc(N3CCN(Cc4ncon4)CC3)cn2c1N(C)c1nc(-c2ccc(F)cc2)cs1 [Compound 41, N-(6-(4-((1,2,4-oxadiazol-3-yl)methyl)piperazin-1-yl)-2-ethylimidazo[1,2-a]pyridin-3-yl)-4-(4-fluorophenyl)-N-methylthiazol-2-amine]
– | > 1000 | 0.01 to 100 | CCc1nc2ccc(C3=NC(CO)CO3)cn2c1N(C)c1nc(-c2ccc(F)cc2)cs1 (stereo not drawn) [Compound 239, (2-(2-ethyl-3-((4-(4-fluorophenyl)thiazol-2-yl)(methyl)amino)imidazo[1,2-a]pyridin-6-yl)-4,5-dihydro-oxazol-4-yl)methanol]
– | > 1000 | 0.01 to 100 | CCc1nc2ccc(C3CCN(S(C)(=O)=O)CC3)cn2c1N(C)c1nc(-c2ccc(F)cc2Cl)cs1 [Compound 99, 4-(2-chloro-4-fluorophenyl)-N-(2-ethyl-6-(1-(methylsulfonyl)piperidin-4-yl)imidazo [1,2-a]pyridin-3-yl)-N-methylthiazol-2-amine]
– | > 1000 | 0.01 to 100 | CCc1nc2ccc(N3CCN(S(=O)(=O)CCCN4CCCC4)CC3)cn2c1N(C)c1nc(-c2ccc(F)cc2)cs1 [Compound 57, N-(2-ethyl-6-(4-(3-(pyrrolidin-1-yl)propylsulfonyl)piperazin-1-yl)imidazo [1,2-a]pyridin-3-yl)-4-(4-fluorophenyl)-N-methylthiazol-2-amine]
– | > 1000 | 0.01 to 100 | CCc1nc2ccc(C3CCN(CC(=O)N4CC(F)(F)C4)CC3)cn2c1N(C)c1nc(-c2ccc(F)cc2)cs1 [Compound 124, 1-(3,3-difluoroazetidin-1-yl)-2-(4-(2-ethyl-3-((4-(4-fluorophenyl)thiazol-2-yl)(methyl)amino)imidazo[1,2-a]pyridin-6-yl)piperidin-1-yl)ethanone]
– | 500 to 1000 | 0.01 to 100 | CCc1nc2ccc(C3CCN(C4CN(C(C)=O)C4)CC3)cn2c1N(C)c1nc(-c2ccc(F)cc2)cs1 [Compound 134, 1-(3-(4-(2-ethyl-3-((4-(4-fluorophenyl)thiazol-2-yl)(methyl)amino)imidazo[1,2-a]pyridin-6-yl)piperidin-1-yl)azetidin-1-yl)ethanone]
– | 100 to 500 | 0.01 to 100 | CCc1nc2ccc(N3CCN(CC(=O)N4CC[C@H](O)C4)CC3)cn2c1N(C)c1nc(-c2ccc(F)cc2)cs1 [Compound 25, (S)-2-(4-(2-ethyl-3-((4-(4-fluorophenyl)thiazol-2-yl)(methyl)amino)imidazo[1,2-a]pyridin-6-yl)piperazin-1-yl)-1-(3-hydroxypyrrolidin-1-yl)ethanone]

Compound | IC50 (LPA 18:2 in rat plasma) [nM] | IC50 (hENPP2 [1]) [nM] | IC50 (hENPP2 [2]) [nM]
CCc1nc2ccc(C3CCN(S(C)(=O)=O)CC3)cn2c1N(C)c1nc(-c2ccc(F)cc2)c(CC#N)s1 [Compound 186, 2-(2-((2-ethyl-6-(1-(methylsulfonyl)piperidin-4-yl)imidazo[1,2-a]pyridin-3-yl)(methyl)amino)-4-(4-fluorophenyl)thiazol-5-yl)acetonitrile] | – | > 1000 | 0.01 to 100
